Reference: patent publication US20040143025A1, “Carbon monoxide generating compunds for treatment of vascular, inflammatory and immune disorders” (priority 2002, published 2004)

Key:
[1] = tested on: anti-MHC class I alloantibodies; test: Detection of alloantibodies (cytofluorimetry); format: in vivo, rat; settings: vs recipients of control adenovirus-treated aortas
Method: Detection of alloantibodies. Donor LEW.1W splenocyts were incubated with heat-inactivated serum from ELW.1A recipients, serially diluted in PBS. Cells were then washed and simultaneously incubated with FITC-coupled donkey anti-rat IgG (Jackson Laboratories) and with a biotin-labeled anti-B cell Mab (clone OX33, ECACC). After washing, cells were incubated with phycoerythrin-coupled streptavidin. Serum levels of alloantibodies were determined by cytofluorimetry (FACScalibur, Becton Dickinson, San Jose, Calif.) and reported as the mean channel fluorescence (MCF) at each dilution of serum. A predominance of anti-donor MHC class II alloantibodies, as previously described in certain tolerance models (Cuturi et al., Eur. J. Immunol. 24:1627-31 (1994)), is detected by the binding of alloantibodies only to OX33 positive cells (B cells). The presence of anti-MHC class I alloantibodies results in labeling of OX33 negative (T cells) and positive cells. MCF of alloantibody binding to OX33 negative cells indicated the level of anti-MHC I alloantibodies.

[2] = tested on: Louvain rats immunized with collagen type II; test: Rat collagen-arthritis model; format: in vivo; parameters: arthritic score / Arthritis Score / X-Ray Score: scale not given here
Method: To assess the therapeutic potential of methylene chloride as a carbon-monoxide generating compound in this disease model, female Louvain rats weighing between 120 and 150 g were injected intradermally with 0.5 mg native chicken collagen type II solubilized in 0.1M acetic acid and emulsified in incomplete Freund's adjuvant. At the onset of disease (around day 10) animals were divided into three groups. One group was treated daily with vehicle, the second and third groups with 100 mg/kg/day and 500 mg/kg/day methylene chloride (p.o.). Severity of disease was evaluated daily using a quantification method based on standardized levels of swelling and periarticular erythema. Animals were sacrificed on day 28. […] Compared to control animals these differences were statistically significant (p<0.02).
Iodoform and bromoform were compared with methylene chloride as alternative carbon monoxide generating compounds, using the rat collagen arthritis model described in Example 6 above. Briefly, arthritis was induced in a Lovain strain of rats by immunizing the animals with Collagen Type II in Incomplete Freund's Adjuvant. Digitized radiographs were obtained at the completion of the study on day 28. Pharmacokinetics were also determined and the synovial tissue from the inflamed joints of the treated animals was harvested on Day 16 or Day 28 post-immunization. Disease systems were generally evident by Day 10.

HO-1 = HO-1 enzymatic activity in liver homogenates; format: biochemical, rat; settings: liver after perfusion; ZnPP = 1.5 mg/kg i.p. 24 h before harvest then CO perfusion; CO = CO only
Method: HO-1 Enzymatic Activity. Livers were homogenized on ice in a Tris-HCl lysis buffer (pH 7.4) containing 0.5% Triton X-100 and protease inhibitors. Samples were frozen in small aliquots until use. Homogenates (100 μl) were mixed with 0.8 mM NADPH, 0.8 mM glucose-6-phosphate 1.0 unit G-60P dehydrogenase, 1 mM MgCl2 and […] purified rat liver biliverdin reductase at 4° C. The reaction was initiated by the addition of hemin (final concentration 0.25 mM). The reaction mixture was incubated at 37° C. in the dark for 15 min. At the end of incubation period, any insoluble material was removed by centrifugation and supernatants were analyzed for bilirubin concentration. An extinction coefficient of 40 mM^−1 cm^−1 at A 460-530 was used to calculate the amount of bilirubin formed. Controls included naive samples in the absence of the NADPH generating system and all the ingredients of the reaction mixture in the absence of graft homogenates. Biliverdin reductase was purified from rat liver, as described in Browne and Ultrich, Mol. Pharmacol. 32:497-504 (1987).

aortic allografts = test: Immunohistology of aortic grafts: activation markers and cytokines; format: in vivo, rat; parameters: key: −: not present; +: low; ++: moderate; +++: frequent
Method: Immunohistological analysis. Immunohistology was performed on cryostat sections as previously described in detail. Guillot et al., J. Immunol. 164:5258-68 (2000). Immunohistological analysis of infiltrating leukocytes was performed at day 30 after transplantation using the following mouse Mab: a mixture of two anti-leukocyte CD45 Mabs (OX1 AND OX30), anti-monocyte/macrophage CD68 (ED1), anti-αβ TCR (R.7.3), anti-CD4 (W3/25), anti-CD8 α chain (OX8), anti-monomorphic class II MHC antigens (OX6), anti-CD25 (OX39) (all from ECACC, Wiltshire, UK), anti-CD54 (ICAM-1) (Seikagaku America Inc., Rockville, Mass.), anti-CD86 (B7.2) (Pharmingen, Franklin Lakes, N.J.) and an irrelevant mouse Mab (3G8, anti-human CD16). VSMCs were detected using a mouse anti-α human smooth muscle actin Mab (Sigma, St. Louis, Mo.). Slides were then incubated with a biotin-conjugated anti-mouse immunoglobulin antibody (Vector Laboratories, Burlingame, Calif.), followed by HRP-conjugated streptavidin (Vector Laboratories) and VIP substrate. IFNγ expression was analyzed using a hamster Mab (Genzyme, Cambridge, Mass.). The IP10 chemiokine was detected using a goat anti-IP10 antibody (Santa Cruz, Santa Cruz, Calif.). Rabbit antibodies were used to detect iNOS (Transduction Laboratories, Lexington, Ky.), HO-1 (Stressgen) and TGFβ1 (Promega, Madison, Wis.). Biotin-conjugated anti-hamster, anti-goat and anti-rabbit antibodies were from Jackson Immunoresearch. Binding of these antibodies was detected by incubation with HRP-conjugated streptavidin and VIP substrate. Tissue sections were counterstained with hematoxylin and lithium carbonate.

**Q.** With ClCCl [methylene chloride] as the molecule, how does the “levels of anti-MHC class I alloantibodies” value [1] read?
**A.** no statistical differences

**Q.** What about the “X-ray score (bone erosion)” value ([2]; methylene chloride 100 mg/kg/day) of the same molecule?
**A.** 2.7+/−0.8

**Q.** And the “arthritic score (mean+/−standard error)” value ([2]; methylene chloride 100 mg/kg/day p.o., end of study (day 28))?
**A.** 3.8+/−1.0

**Q.** What about the “X-ray score (bone erosion)” value ([2]; methylene chloride 500 mg/kg/day) of the same molecule?
**A.** 1.8+/−0.7

**Q.** What about the arthritic score ([2]; methylene chloride 500 mg/kg/day p.o., end of study (day 28)) of the same molecule?
**A.** 2.75

**Q.** [C-]#[O+] [CO, carbon monoxide] was tested. Which HO-1 enzyme activity (HO-1) did it give?
**A.** 2.25±0.18 nmol of bilirubin/mg/protein/min

**Q.** And the “CD54 (ICAM-1)” value (aortic allografts; adventitia)?
**A.** +++

**Q.** What about the “CD86 (B7.2)” value (aortic allografts; adventitia) of the same molecule?
**A.** +

**Q.** And the INOS (aortic allografts; adventitia)?
**A.** +++

**Q.** And the IP10 (aortic allografts; adventitia)?
**A.** +

**Q.** And the MHC-II (aortic allografts; adventitia)?
**A.** ++

**Q.** And the TGFβ (aortic allografts; adventitia)?
**A.** ++

**Q.** What about the “CD54 (ICAM-1)” value (aortic allografts; intima) of the same molecule?
**A.** ++

**Q.** What about the “CD86 (B7.2)” value (aortic allografts; intima) of the same molecule?
**A.** +

**Q.** And the INOS (aortic allografts; intima)?
**A.** ++

**Q.** What about the IP10 (aortic allografts; intima) of the same molecule?
**A.** +

**Q.** What about the MHC-II (aortic allografts; intima) of the same molecule?
**A.** ++

**Q.** What about the TGFβ (aortic allografts; intima) of the same molecule?
**A.** +

**Q.** And the “CD54 (ICAM-1)” value (aortic allografts; media)?
**A.** −

**Q.** What about the “CD86 (B7.2)” value (aortic allografts; media) of the same molecule?
**A.** −

**Q.** And the INOS (aortic allografts; media)?
**A.** ++

**Q.** What about the IP10 (aortic allografts; media) of the same molecule?
**A.** +

**Q.** And the MHC-II (aortic allografts; media)?
**A.** −

**Q.** What about the TGFβ (aortic allografts; media) of the same molecule?
**A.** +
